Results from US10130633B2, “Compounds” (BAYER PHARMA AKTIENGESELLSCHAFT, priority 2013, dated 2018).

Tests used:
[1] = tested on: HCT116 FOP control reporter cell line; test: HCT116 FOPFlash control reporter assay (FOP control vector, non-functional TCF elements); format: cell-based; settings: HCT116 FOP control reporter cells, 36 hours incubation, luciferase expression
Text: In a parallel approach, HCT116 cells were cotransfected with the FOP control vector and pcDNA3. The FOP vector is identical to the TOP construct, but it contains instead of functional TCF elements a randomized, non-functional sequence. For this transfection a stable transfected cell line was generated as well.

[2] = tested on: constitutive active colorectal cancer cell (CRC) Wnt pathway; test: HCT116 TOPFlash cellular reporter assay (Super TopFlash luciferase), constitutive active Wnt pathway; format: cell-based; settings: HCT116 TOP reporter cells, 36 hours incubation, luciferase expression
Experimental: In order to discover and characterize small molecules which inhibit the constitutive active colorectal cancer cell (CRC) Wnt pathway, a cellular reporter assay was employed. […] Stable transfectants were generated by cotransfection with pcDNA3 and selection of stable transfected cells with 1 mg/ml G418.

Row | IC50 ([1]; Homo sapiens, HCT-116, 36 h) [nM] | IC50 ([2]; Homo sapiens, HCT-116, 36 h) [nM] | IC50 [1] [nM] | IC50 [2] [nM] | Structure (SMILES)
1 | 44000 | 216 | – | – | O=C(Nc1nnc(-c2ccccc2F)s1)c1ccc(OC(F)(F)F)c(NC(=O)C2(N3CCOCC3)CC2)c1 [Example 89, N-[5-(2-fluorophenyl)-1,3,4-thiadiazol-2-yl]-3-({[1-(morpholin-4-yl)cyclopropyl]carbonyl}amino)-4-(trifluoromethoxy)benzamide]
2 | ≥ 50000 | 900 | – | – | CC(C(=O)Nc1cc(C(=O)Nc2nnc(-c3ccccc3)s2)ccc1C(F)(F)F)N1CCN(C)CC1 (stereo not shown) [Example 129, 3-{[2-(4-methylpiperazin-1-yl)propanoyl]amino}-N-(5-phenyl-1,3,4-thiadiazol-2-yl)-4-(trifluoromethyl)benzamide]
3 | ≥ 50000 | 315 | – | – | COCc1ccc(C(=O)Nc2nnc(-c3ccccc3C)s2)cc1NC(=O)CN1CCOCC1 [Example 176, 4-(methoxymethyl)-N-[5-(2-methylphenyl)-1,3,4-thiadiazol-2-yl]-3-[(morpholin-4-ylacetyl)amino]benzamide]
4 | ≥ 50000 | 508 | – | – | O=C(Nc1nnc(-c2ccccc2)s1)c1ccc(F)c(NC(=O)C2(N3CCOCC3)CC2)c1 [Example 78, 4-fluoro-3-({[1-(morpholin-4-yl)cyclopropyl]carbonyl}amino)-N-(5-phenyl-1,3,4-thiadiazol-2-yl)benzamide]
5 | – | – | 11200 | 237 | CC(C(=O)Nc1cc(C(=O)Nc2ccc(-c3ccccc3F)nc2)ccc1C(F)(F)F)N1CCOCC1 (stereo not shown) [Example 225, N-[6-(2-fluorophenyl)pyridin-3-yl]-3-{[2-(morpholin-4-yl)propanoyl]amino}-4-(trifluoromethyl)benzamide]
6 | ≥ 50000 | 360 | – | – | O=C(Nc1nnc(-c2ccccc2)s1)c1ccc(OCc2ccccc2)c(NC(=O)C2(N3CCOCC3)CC2)c1 [Example 92, 4-(benzyloxy)-3-({[1-(morpholin-4-yl)cyclopropyl]carbonyl}amino)-N-(5-phenyl-1,3,4-thiadiazol-2-yl)benzamide]
7 | ≥ 50000 | 985 | – | – | O=C(CN1CCN(CC(F)(F)F)CC1)Nc1cc(C(=O)Nc2ccc(-c3ccccc3F)nc2)ccc1OC(F)(F)F [Example 233, N-[6-(2-fluorophenyl)pyridin-3-yl]-3-({[4-(2,2,2-trifluoroethyl)piperazin-1-yl]acetyl}amino)-4-(trifluoromethoxy)benzamide]
8 | ≥ 50000 | 3200 | – | – | COc1ccccc1-c1nnc(NC(=O)c2ccc(OC(F)(F)F)c(NC(=O)CN3CCN(C)CC3)c2)s1 [Example 101, N-[5-(2-methoxyphenyl)-1,3,4-thiadiazol-2-yl]-3-{[(4-methylpiperazin-1-yl)acetyl]amino}-4-(trifluoromethoxy)benzamide]
9 | ≥ 50000 | 84.8 | – | – | CN1CCN(C2(C(=O)Nc3cc(C(=O)Nc4ccc(-c5ccccc5F)nc4)ccc3OC3CC3)CC2)CC1 [Example 135, 4-(cyclopropyloxy)-N-[6-(2-fluorophenyl)pyridin-3-yl]-3-({[1-(4-methylpiperazin-1-yl)cyclopropyl]carbonyl}amino)benzamide]
10 | – | – | 32800 | 76.5 | CC(C(=O)Nc1cc(NC(=O)c2ccc(-c3ccccc3F)nc2)ccc1OC(F)(F)F)N1CC2CCC(C1)O2 (stereo not shown) [Example 204, 6-(2-fluorophenyl)-N-[3-{[2-(8-oxa-3-azabicyclo[3.2.1]oct-3-yl)propanoyl]amino}-4-(trifluoromethoxy)phenyl] nicotinamide]
11 | ≥ 50000 | 150 | – | – | O=C(CN1CCOCC1)Nc1cc(C(=O)Nc2nnc(-c3ccccc3)s2)ccc1OC(F)(F)F [Example 55, 3-[(morpholin-4-ylacetyl)amino]-N-(5-phenyl-1,3,4-thiadiazol-2-yl)-4-(trifluoromethoxy)benzamide]
12 | – | – | 12200 | 235 | CC(C(=O)Nc1cc(C(=O)Nc2ccc(-c3cc(F)cc(F)c3)nc2)ccc1OC(F)(F)F)N1CCOCC1 (stereo not shown) [Example 221, N-[6-(3,5-difluorophenyl)pyridin-3-yl]-3-{[2-(morpholin-4-yl)propanoyl]amino}-4-(trifluoromethoxy)benzamide]
13 | – | – | 24600 | 40.2 | CC(C(=O)Nc1cc(C(=O)Nc2ccc(-c3ccccc3F)nc2)ccc1C(F)(F)F)N1CCOCC1 (stereo not shown) [Example 211, N-[6-(2-fluorophenyl)pyridin-3-yl]-3-{[2-(morpholin-4-yl)propanoyl]amino}-4-(trifluoromethyl)benzamide]
14 | 36500 | 205 | – | – | CN1CCN(CC(=O)Nc2cc(C(=O)Nc3nnc(-c4ccccc4Cl)s3)ccc2OC(F)(F)F)CC1 [Example 148, N-[5-(2-chlorophenyl)-1,3,4-thiadiazol-2-yl]-3-{[(4-methylpiperazin-1-yl)acetyl]amino}-4-(trifluoromethoxy)benzamide]
15 | ≥ 50000 | 560 | – | – | Cn1nc(C(=O)Nc2ccc(OC(F)(F)F)c(NC(=O)CN3CCOCC3)c2)cc1-c1ccccc1 [Example 123, 1-methyl-N-{3-[(morpholin-4-ylacetyl)amino]-4-(trifluoromethoxy)phenyl}-5-phenyl-1H-pyrazole-3-carboxamide]
16 | ≥ 50000 | 520 | – | – | CN1CCN(CC(=O)Nc2cc(C(=O)Nc3nnc(-c4ccccc4)s3)ccc2Cl)CC1 [Example 173, 4-chloro-3-{[(4-methylpiperazin-1-yl)acetyl]amino}-N-(5-phenyl-1,3,4-thiadiazol-2-yl)benzamide]
17 | ≥ 50000 | 98 | – | – | COc1ccc(NC(=O)c2ncc(-c3ccccc3)s2)cc1NC(=O)CN1CCOCC1 [Example 23, N-{4-methoxy-3-[(morpholin-4-ylacetyl)amino]phenyl}-5-phenyl-1,3-thiazole-2-carboxamide]
18 | ≥ 50000 | 2890 | – | – | O=C(CN1CCOCC1)Nc1cc(C(=O)Nc2nnc(-c3ccccc3)s2)ccc1OC(F)F [Example 239, 4-(difluoromethoxy)-3-[(morpholin-4-ylacetyl)amino]-N-(5-phenyl-1,3,4-thiadiazol-2-yl)benzamide]
19 | 8000 | 106 | – | – | O=C(CN1CCOCC1)Nc1cc(C(=O)Nc2ccc(-c3cc(F)cc(F)c3)nc2)ccc1OC(F)(F)F [Example 72, N-[6-(3,5-difluorophenyl)pyridin-3-yl]-3-[(morpholin-4-ylacetyl)amino]-4-(trifluoromethoxy)benzamide]
20 | ≥ 50000 | 222 | – | – | CC(C(=O)Nc1cc(C(=O)Nc2ccc(-c3ccc(O)cc3)nc2)ccc1OC(F)(F)F)N1CCOCC1 (stereo not shown) [Example 195, N-[6-(4-hydroxyphenyl)pyridin-3-yl]-3-{[2-(morpholin-4-yl)propanoyl]amino}-4-(trifluoromethoxy)benzamide]
21 | – | – | 6400 | 190 | CC(C(=O)Nc1cc(NC(=O)c2ccc(-c3cccc(F)c3)nc2)ccc1OC(F)(F)F)N1CC2CCC(C1)O2 (stereo not shown) [Example 200, 6-(3-fluorophenyl)-N-[3-{[2-(8-oxa-3-azabicyclo[3.2.1]oct-3-yl)propanoyl]amino}-4-(trifluoromethoxy)phenyl] nicotinamide]
22 | ≥ 50000 | 4100 | – | – | O=C(CN1CCOCC1)Nc1cc(C(=O)Nc2nnc(-c3ccccc3)o2)ccc1OC(F)(F)F [Example 191, 3-[(morpholin-4-ylacetyl)amino]-N-(5-phenyl-1,3,4-oxadiazol-2-yl)-4-(trifluoromethoxy)benzamide]
23 | 25000 | 500 | – | – | CS(=O)(=O)c1ccc(C(=O)Nc2ccc(-c3ccccc3F)nc2)cc1NC(=O)CN1CCOCC1 [Example 139, N-[6-(2-fluorophenyl)pyridin-3-yl]-4-(methylsulfonyl)-3-[(morpholin-4-ylacetyl)amino]benzamide]
24 | 3100 | 1380 | – | – | O=C(Nc1ccc([N+](=O)[O-])cc1Cl)c1cc(Cl)ccc1O [Ref., niclosamide, reference compound]
25 | – | – | 15200 | 124 | CC(C(=O)Nc1cc(NC(=O)c2ccc(-c3cc(F)cc(F)c3)nc2)ccc1OC(F)(F)F)N1CCOCC1 (stereo not shown) [Example 203, 6-(3,5-difluorophenyl)-N-[3-{[2-(morpholin-4-yl)propanoyl]amino}-4-(trifluoromethoxy)phenyl] nicotinamide]
26 | 30000 | 132 | – | – | O=C(CN1CCOCC1)Nc1cc(C(=O)Nc2nnc(-c3cccc(F)c3)s2)ccc1OC(F)(F)F [Example 153, N-[5-(3-fluorophenyl)-1,3,4-thiadiazol-2-yl]-3-[(morpholin-4-ylacetyl)amino]-4-(trifluoromethoxy)benzamide]
27 | 7150 | 118 | – | – | CC(C(=O)Nc1cc(C(=O)Nc2ccc(-c3ccccc3F)nc2)ccc1C(C)(C)C)N1CCOCC1 (stereo not shown) [Example 142, 4-tert-butyl-N-[6-(2-fluorophenyl)pyridin-3-yl]-3-{[2-(morpholin-4-yl)propanoyl]amino}benzamide]
28 | 29900 | 208 | – | – | CC(C(=O)Nc1cc(C(=O)Nc2ccc(-c3ccc(O)cc3F)nc2)ccc1OC(F)(F)F)N1CCOCC1 (stereo not shown) [Example 109, N-[6-(2-fluoro-4-hydroxyphenyl)pyridin-3-yl]-3-{[2-(morpholin-4-yl)propanoyl]amino}-4-(trifluoromethoxy)benzamide]

Row | Structure (SMILES) | IC50 ([1]; Homo sapiens, HCT-116, 36 h) [nM] | IC50 ([2]; Homo sapiens, HCT-116, 36 h) [nM] | IC50 [1] [nM] | IC50 [2] [nM]
29 | C[C@@H](C(=O)Nc1cc(C(=O)Nc2ccc(-c3ccc(CO)cc3)nc2)ccc1OC(F)(F)F)N1CCOCC1 (single isomer, unassigned) [Example 119, N-{6-[4-(hydroxymethyl)phenyl]pyridin-3-yl}-3-{[(2S)-2-(morpholin-4-yl)propanoyl]amino}-4-(trifluoromethoxy)benzamide or N-{6-[4-(hydroxymethyl)phenyl]pyridin-3-yl}-3-{[(2R)-2-(morpholin-4-yl)propanoyl]amino}-4-(trifluoromethoxy)benzamide] | – | – | ≥ 50000 | 650
